Patent US11896600B2, “Composition and method of using eicosanoyl-5-hydroxytryptamide for treating neurodegenerative disorders” (Vidya Herbs, Inc., priority 2019, dated 2024)
Where a name gives a salt, the structure may show the parent alone.

Tested on: scopolamine-induced amnesia in mice
Assay: Elevated plus maze (transfer latency) in scopolamine-induced amnesia mice
Conditions: donepezil hydrochloride 3 mg/kg p.o., 7-day pre-treatment; p<0.001
Method: Groups III-V mice were dosed every 24 h interval with respective drugs for 7 consecutive days. On day 7, amnesia was induced in all the groups except the control group by intraperitoneal injection of scopolamine (1 mg/kg) 30 minutes after the respective treatments. 30 minutes later, elevated plus maze (EPM) was carried out to assess the cognitive function. At the end of experiment, mice were sacrificed; serum and brain homogenates were used for further analysis.
Briefly, the acquisition trail (day 6) was carried out by placing the mouse at the end of an open arm. The time taken by the mouse to enter any of the closed arms was taken as transfer latency. Cutoff time allotted for each mouse was 180 s. Retention trail was carried out 24 h after the first trail (Day 7, 30 min after scopolamine treatment). The transfer latency was determined in a similar manner as mentioned before. Shortened transfer latency was considered as an index of memory improvement.
In this study, EPM was applied as a behavioral model to assess learning and memory.

`COc1cc2c(cc1OC)C(=O)C(CC1CCN(Cc3ccccc3)CC1)C2` (stereo not shown) [donepezil, donepezil hydrochloride] was tested, and the “reduction of latency period (transfer latency) compared to scopolamine control group” value was 82.45%.
